Assay results as given in BindingDB's records for doi:10.1016/j.bioorg.2017.01.006 (Jaipur National University, 2017).

target: Gag-Pol polyprotein (Human immunodeficiency virus type 1 group M subtype B (isolate HXB2), UniProt P04585); assay: RT Assay; conditions: 37 °C
Experimental: To a lysis buffer (20 μl), 4-6 ng recombinant HIV-1-RT was added in separate reaction tubes. Lysis buffer without HIV-1-RT was used as a negative control. Standards and test compound RT inhibitor (10 μg) were diluted with lysis buffer. This mixture was incubated for 1 h at 37 °C. For the number of micro plate modules to be used, enough foil bags were opened and micro plate modules were put into the frame in the correct orientation. The above samples were transferred to wells of microplate module. After addition it was covered with cover foil and incubated at 37 °C for 1 h. Solution was removed and rinsed five times with 250 μl of washing buffer per well for 30 s to each well. Then washing buffer was removed carefully. 200 μl of anti-DIG-POD working dilution was added to individual well and covered with cover foil and incubated at 37 °C for 1 h. Anti-DIG-POD working dilution solution was completely removed. Microplate module were washed five times for 30 s with washing buffer 250 μl and removed. 200 μl of ABTS substrate solution was added to individual well and incubated between 15 °C and 25 °C till (15−30 min) green color was obtained.

Row | Compound | IC50
1 | CC1=C(C(=O)NC(=O)CN2C(=O)C(=O)c3ccccc32)C(c2ccc(Cl)cc2)NC(=O)N1 (stereo not given) [4-(4-Chlorophenyl)-N-(2-(2,3-dioxoindolin-1-yl)acetyl)-6-methyl-2-oxo-1,2,3,4-tetrahydro pyrimidine-5-carboxamide (9h)] | > 100 nM
2 | CC1=C(C(=O)NC(=O)CN2C(=O)C(=O)c3ccccc32)C(C)NC(=O)N1 (stereo not given) [N-(2-(2,3-Dioxoindolin-1-yl)acetyl)-4,6-dimethyl-2-oxo-1,2,3,4-tetrahydropyrimidine-5-carboxamide (9c)] | 64 nM
3 | CCC1NC(=O)NC(C)=C1C(=O)NC(=O)CN1C(=O)C(=O)c2ccccc21 (stereo not given) [N-(2-(2,3-Dioxoindolin-1-yl)acetyl)-4-ethyl-6-methyl-2-oxo-1,2,3,4-tetrahydropyrimidine-5-carboxamide (9d)] | 67 nM
4 | CCCC1NC(=O)NC(C)=C1C(=O)NC(=O)CN1C(=O)C(=O)c2ccccc21 (stereo not given) [N-(2-(2,3-Dioxoindolin-1-yl)acetyl)-6-methyl-2-oxo-4-propyl-1,2,3,4-tetrahydropyrimidine-5-carboxamide (9e)] | > 100 nM
5 | Cc1cc(/C=C/C#N)cc(C)c1Nc1ccnc(Nc2ccc(C#N)cc2)n1 [Rilpivirine] | 68 nM
